Series [1] is described as follows: Inhibition of rabbit erythrocyte S-adenosylhomocysteine hydrolase. Details: species or system Oryctolagus cuniculus; call rule not given here.
A further series deals with Ebolavirus. Nature of the series: Antiviral activity against Ebolavirus Zaire infected in african green monkey Vero cells assessed as inhibition of viral-induced cytopathicity. The class given is functional, cell-based. The settings on record: Orthoebolavirus. Background: Cytopathic effects are the visible damage that an infection or toxin causes in cultured cells.
Another series deals with Hepatitis B virus. Nature of the series: Antiviral activity against Hepatitis B virus infected in HepG2.2.15 cells assessed as inhibition of viral-induced cytopathicity. The class given is functional, organism-based, HepG2 2.2.15.
The test system of the next series is Human betaherpesvirus 5. Nature of the series: Antiviral activity against human cytomegalovirus infected in HFF cells assessed as inhibition of viral-induced cytopathicity. The class given is functional, organism-based. The settings on record: Human betaherpesvirus 5, HFF.
For the next series, the system named is Norovirus. Nature of the series: Antiviral activity against Norovirus infected in HG23 cells assessed as inhibition of viral-induced cytopathicity. In kind it is functional, cell-based.
Series [2] is described as follows: Cytotoxicity against african green monkey Vero cells. The settings on record: chlorocebus sabaeus. The class given is cell-based.
Series [3] can be described thus: Cytotoxicity against human HG23 cells. In kind it is cell-based.
The subject of another series is Dengue virus. Nature of the series: Antiviral activity against Dengue virus infected in african green monkey Vero cells assessed as inhibition of viral-induced cytopathicity. The class given is functional, organism-based.
Another series concerns Measles morbillivirus. Nature of the series: Antiviral activity against Measles virus infected in african green monkey Vero cells assessed as inhibition of viral-induced cytopathicity. In kind it is functional, organism-based.
A further series deals with Vaccinia virus. Nature of the series: Antiviral activity against Vaccinia virus infected in HFF cells assessed as inhibition of viral-induced cytopathicity. The class given is functional, organism-based, Orthopoxvirus vaccinia.
Series [4] is described as follows: Selectivity index, ratio of CC50 for african green monkey Vero cells to EC50 for Ebola virus Zaire virus. The settings on record: read-out: Selectivity Index. The class given is toxicity, cell-based.
Series [5] can be described thus: Cytotoxicity against human HFF cells. The class given is cell-based.
Series [6] can be described thus: Selectivity index, ratio of CC50 for african green monkey Vero cells to EC50 for Measles virus. The class given is toxicity, cell-based. Particulars: read-out: Selectivity Index.
The nature of series [7]: Selectivity index, ratio of CC50 for human HFF cells to EC50 for human cytomegalovirus. The class given is toxicity, cell-based. The settings on record: read-out: Selectivity Index.
The nature of series [8]: Selectivity index, ratio of CC50 for human HepG2.2.15 cells to EC90 for Hepatitis B virus. In kind it is toxicity. The settings on record: read-out: Selectivity Index.
Series [9] in a line: Selectivity index, ratio of CC50 for human HFF cells to EC90 for Vaccinia virus. In kind it is toxicity, cell-based. The settings on record: read-out: Selectivity Index.
A short description of series [10]: Selectivity index, ratio of CC50 for human HepG2.2.15 cells to EC50 for Hepatitis B virus. The class given is toxicity. Particulars: read-out: Selectivity Index.
The nature of series [11]: Selectivity index, ratio of CC50 for human HG23 cells to EC50 for Norovirus. The settings on record: read-out: Selectivity Index. In kind it is toxicity, cell-based.
Series [12] in a line: Selectivity index, ratio of CC50 for african green monkey Vero cells to EC50 for Dengue virus. The class given is toxicity, cell-based. The settings on record: read-out: Selectivity Index.
Series [13] is described as follows: Cytotoxicity against human HepG2.2.15 cells. In kind it is cell-based, HepG2 2.2.15.
The nature of series [14]: Selectivity index, ratio of CC50 for human HFF cells to EC90 for human cytomegalovirus. In kind it is toxicity, cell-based. The settings on record: read-out: Selectivity Index.
Series [15] can be described thus: Selectivity index, ratio of CC50 for human HFF cells to EC50 for Vaccinia virus. In kind it is toxicity, cell-based. Particulars: read-out: Selectivity Index.
Series [16] in a line: Selectivity index, ratio of CC50 for human HG23 cells to EC90 for Norovirus. In kind it is toxicity, cell-based. The settings on record: read-out: Selectivity Index.

Bounds are passed on as bounds.

For orientation: IC50 means the concentration that inhibits the measured activity by half. Usually EC50 stands for the midpoint of the concentration-response curve. For orientation: EC90 means the concentration at which the effect reaches the 90% level. For orientation: CC50 means the concentration at which the toxic effect on the cells reaches its halfway point.

In series [1], `Nc1ncnc2c1ncn2[C@@H]1C=C(CO)[C@@H](O)[C@H]1O` [NEOPLANOCIN A] showed an IC50 of 0.0009 µM.
Take `Nc1ncnc2c1ncn2C1=C[C@@H](CO)[C@H](O)[C@@H]1O`: the EC50 in the series on Ebolavirus is 0.76 µM; with Hepatitis B virus (hepg2 2.2.15), “Not Active”; with Human betaherpesvirus 5, 3.7 µM; with Norovirus, 11 µM; in the series on Dengue virus, 1.3 µM; in the series on Measles morbillivirus it was 0.72 µM. The EC50 result with Vaccinia virus (hff) is listed as “Not Active”. Moreover, the EC90 is 6.86 µM in the series with Human betaherpesvirus 5 and 89 µM in the series on Norovirus. For the same molecule, the CC50 is 11.4 µM in [2] and > 300 µM in series [3].
For `Nc1ncnc2c1ncn2C1=C[C@H](CO)[C@@H](O)[C@H]1O`, the EC50 with Ebolavirus was 0.38 µM; in the series on Hepatitis B virus (Hepatitis B virus, HepG2 2.2.15, read-out: EC50), 7.2 µM; in the series on Human betaherpesvirus 5, 0.11 µM; with Norovirus, 0.784 µM; in the series with Dengue virus, 1.1 µM; in the series on Measles morbillivirus, < 0.38 µM. Besides, in the series with Vaccinia virus (Orthopoxvirus vaccinia, HFF, read-out: EC50), the EC50 turned out to be 10.1 µM. Further, the 90% effect concentration (EC90) in the series with Hepatitis B virus (Hepatitis B virus, HepG2 2.2.15) is 35 µM; in the series on Human betaherpesvirus 5, > 10 µM; in the series with Vaccinia virus (Orthopoxvirus vaccinia, HFF), > 300 µM. In addition, the selectivity ratio is 3.5 in series [4]; > 3.5 in series [6]; 448 in [7]; > 3 in series [8]; 1 in series [9]; > 14 in [10]. In addition, the selectivity ratio was > 128 in series [11]; 17 in [12]; < 4 in series [14]; > 30 in series [15]; > 11 in series [16]. The same molecule had an IC50 in series [1] of 0.0009 µM. The CC50 in [5] is > 49.3 µM; in series [2] it was 1.3 µM; in series [3] it was > 100 µM; in series [13] it was > 100 µM.
